Experimental data from DBAASP.
≈ marks a conversion by molar mass, not a printed value.

Assays:
Test in all cases: ≥ marks a high value that may be exact or a test limit, other limits are often not marked, values filed in µg/mL are converted to µM
[1] = test system: Acinetobacter johnsonii NCDC 0072
[2] = test system: Bacillus cereus NCDC 0240
[3] = test system: Escherichia coli MTCC 0723
[4] = test system: Listeria monocytogenes ATCC 19111
[5] = test system: Pseudomonas aeruginosa ATCC 27853
[6] = test system: Pseudomonas aeruginosa NCDC 0105
[7] = test system: Salmonella enterica subsp. enterica serovar Typhimurium ATCC 14028
[8] = test system: Staphylococcus aureus ATCC 29213
[9] = test system: Staphylococcus aureus NCDC 0111
[10] = test system: Aerococcus viridans
[11] = test system: Escherichia coli ATCC 25922
[12] = test system: Escherichia coli O111
[13] = test system: Klebsiella pneumoniae
[14] = test system: Pseudomonas aeruginosa
[15] = test system: Rothia nasimurium
[16] = test system: Staphylococcus sciuri
[17] = test system: Alicyclobacillus acidoterrestris CICC 10374
[18] = test system: Bacillus cereus AS1.1846
[19] = test system: Bacillus megaterium CICC 10448
[20] = test system: Bacillus pumilus CMCC 63202
[21] = test system: Bacillus subtilis ATCC 9943
[22] = test system: Clostridioides difficile CICC 22951
[23] = test system: Clostridium perfringens CICC 22949
[24] = test system: Clostridium sporogenes CICC 10385
[25] = test system: Geobacillus stearothermophilus CICC 20139
[26] = test system: Micrococcus luteus CMCC 28000
[27] = test system: Paenibacillus polymyxa CGMCC 4314
[28] = test system: Proteus mirabilis CMCC 49005
[29] = test system: Pseudomonas fluorescens AS1.1802
[30] = test system: Salmonella enterica subsp. enterica serovar Enteritidis CICC 21527
[31] = test system: Salmonella enterica subsp. enterica serovar Paratyphi A CICC 21501
[32] = test system: Salmonella enterica subsp. enterica serovar Paratyphi B CICC 21495
[33] = test system: Salmonella typhimurium CMCC 51005
[34] = test system: Serratia marcescens CICC 10187
[35] = test system: Shigella flexneri CMCC 51571
[36] = test system: Staphylococcus aureus CMCC 26003
[37] = test system: Enterococcus faecalis V583
[38] = test system: Alternaria brassicicola
[39] = test system: Ascochyta pisi
[40] = test system: Bacillus megaterium
[41] = test system: Bacillus subtilis
[42] = test system: Botrytis cinerea
[43] = test system: Enterobacter cloacae
[44] = test system: Escherichia coli 1106
[45] = test system: Escherichia coli D22
[46] = test system: Escherichia coli D31
[47] = test system: Fusarium culmorum
[48] = test system: Fusarium haematococcum
[49] = test system: Fusarium oxysporum
[50] = test system: Micrococcus luteus
[51] = test system: Neurospora crassa
[52] = test system: Pectobacterium carotovorum
[53] = test system: Pediococcus acidilactici
[54] = test system: Salmonella typhimurium
[55] = test system: Trichoderma viride

CC[C@H](C)[C@H](NC(=O)[C@H](CO)NC(=O)[C@H](Cc1c[nH]c2ccccc12)NC(=O)[C@@H]1CCCN1C(=O)[C@@H](NC(=O)[C@H](C)N)[C@@H](C)CC)C(=O)N[C@@H](Cc1c[nH]c2ccccc12)C(=O)N[C@@H](Cc1c[nH]c2ccccc12)C(=O)N[C@@H](Cc1cnc[nH]1)C(=O)N[C@@H](CC(C)C)C(=O)N[C@@H](CC(C)C)C(=O)N[C@@H](Cc1ccccc1)C(=O)N[C@@H](CCCCN)C(=O)NCC(=O)O [AIPWSIWWHLLFKG]
MIC [1]: 25 µM (≈ 43.9 µg/mL) | MIC [2]: ≥ 50 µM | MIC [3]: ≥ 50 µM | MIC [4]: 1.5 µM (≈ 2.63 µg/mL) | MIC [5]: 200 µM (≈ 351 µg/mL) | MIC [6]: ≥ 200 µM | MIC [7]: 3 µM (≈ 5.26 µg/mL) | MIC [8]: 0.8 µM (≈ 1.4 µg/mL) | MIC [9]: 12.5 µM (≈ 21.9 µg/mL)

N[C@@H](CC(=O)O)C(=O)N[C@@H](CCC(=O)O)C(=O)N[C@@H](CC(=O)O)C(=O)N[C@@H](CC(=O)O)C(=O)N[C@@H](CC(=O)O)C(=O)O [DEDDD]
MIC [10]: ≥ 32.9 µM | MIC [11]: 82.3 µM (≈ 50 µg/mL) | MIC [12]: ≥ 82.3 µM | MIC [13]: 82.3 µM (≈ 50 µg/mL) | MIC [14]: 82.3 µM (≈ 50 µg/mL) | MIC [15]: 16.5 µM (≈ 10 µg/mL) | MIC [8]: 16.5 µM (≈ 10 µg/mL) | MIC [16]: ≥ 82.3 µM

CSCC[C@H](NC(=O)[C@H](CCCCN)NC(=O)[C@H](CCC(N)=O)NC(=O)[C@H](Cc1c[nH]c2ccccc12)NC(=O)[C@@H](N)Cc1ccccc1)C(=O)N[C@@H](CO)C(=O)N[C@@H](Cc1ccccc1)C(=O)N[C@@H](C)C(=O)O [FWQKMSFA]
MIC [17]: 15.3 µM (≈ 16 µg/mL) | MIC [18]: 15.3 µM (≈ 16 µg/mL) | MIC [19]: 15.3 µM (≈ 16 µg/mL) | MIC [20]: 15.3 µM (≈ 16 µg/mL) | MIC [21]: 15.3 µM (≈ 16 µg/mL) | MIC [22]: 30.6 µM (≈ 32 µg/mL) | MIC [23]: 30.6 µM (≈ 32 µg/mL) | MIC [24]: 30.6 µM (≈ 32 µg/mL) | MIC [11]: 61.3 µM (≈ 64 µg/mL) | MIC [25]: 30.6 µM (≈ 32 µg/mL) | MIC [26]: 15.3 µM (≈ 16 µg/mL) | MIC [27]: 15.3 µM (≈ 16 µg/mL) | MIC [28]: 15.3 µM (≈ 16 µg/mL) | MIC [29]: 15.3 µM (≈ 16 µg/mL) | MIC [30]: 15.3 µM (≈ 16 µg/mL) | MIC [31]: 15.3 µM (≈ 16 µg/mL) | MIC [32]: 15.3 µM (≈ 16 µg/mL) | MIC [33]: 30.6 µM (≈ 32 µg/mL) | MIC [34]: 15.3 µM (≈ 16 µg/mL) | MIC [35]: 30.6 µM (≈ 32 µg/mL) | MIC [36]: 15.3 µM (≈ 16 µg/mL)

CC[C@H](C)[C@H](N)C(=O)N[C@H](C(=O)N[C@@H](CO)C(=O)N[C@@H](CO)C(=O)N[C@@H](CCSC)C(=O)N[C@@H](Cc1ccccc1)C(=O)N[C@H](C(=O)N[C@@H](CO)C(=O)N[C@@H](C)C(=O)O)C(C)C)C(C)C [IVSSMFVSA]
MIC [37]: ≥ 133 µM

CC[C@H](C)[C@H](NC(=O)[C@@H](NC(=O)[C@@H]1CCCN1C(=O)[C@@H](NC(=O)[C@@H]1CCCN1C(=O)[C@@H](N)CCCCN)C(C)C)[C@@H](C)CC)C(=O)N[C@@H](Cc1ccc(O)cc1)C(=O)N[C@H]1CSSC[C@@H](C(=O)N[C@@H](CCC(N)=O)C(=O)N[C@@H](CCCN=C(N)N)C(=O)N[C@@H](CCSC)C(=O)O)NC(=O)[C@H](CCCCN)NC(=O)CNC(=O)[C@H]([C@@H](C)O)NC(=O)[C@H](CCCN=C(N)N)NC(=O)[C@H](CCCN=C(N)N)NC(=O)[C@H](CC(N)=O)NC1=O [KPVPIIYCNRRTGKCQRM]
MIC [10]: 0.849 µM (≈ 1.83 µg/mL) | MIC [38]: 3.54 µM (≈ 7.64 µg/mL) | MIC [39]: 14.1 µM (≈ 30.6 µg/mL) | MIC [40]: 3.54 µM (≈ 7.64 µg/mL) | MIC [41]: 28.3 µM (≈ 61.1 µg/mL) | MIC [42]: 1.73 µM (≈ 3.74 µg/mL) | MIC [43]: 1.73 µM (≈ 3.74 µg/mL) | MIC [44]: 0.849 µM (≈ 1.83 µg/mL) | MIC [45]: 0.424 µM (≈ 0.917 µg/mL) | MIC [46]: 0.424 µM (≈ 0.917 µg/mL) | MIC [47]: 7.07 µM (≈ 15.3 µg/mL) | MIC [48]: 7.07 µM (≈ 15.3 µg/mL) | MIC [49]: 28.3 µM (≈ 61.1 µg/mL) | MIC [13]: 1.73 µM (≈ 3.74 µg/mL) | MIC [50]: 1.73 µM (≈ 3.74 µg/mL) | MIC [51]: 3.54 µM (≈ 7.64 µg/mL) | MIC [52]: 28.3 µM (≈ 61.1 µg/mL) | MIC [53]: 28.3 µM (≈ 61.1 µg/mL) | MIC [14]: 28.3 µM (≈ 61.1 µg/mL) | MIC [54]: 1.73 µM (≈ 3.74 µg/mL) | MIC [55]: 3.54 µM (≈ 7.64 µg/mL)
